In US20250002435A1, “ARYLATED FENCHONE DERIVATIVES, COMPOSITIONS COMPRISING THEM, PROCESSES FOR THEIR PREPARATION AND USES THEREOF” (priority 2021, published 2025):
“Also recorded” adds a separate entry of the source.

What was measured:
[1] = tested on: zymosan-induced paw swelling; assay: zymosan mouse paw inflammatory pain model, paw swelling, with or without CB2 antagonists; format: in vivo; settings: for paw swelling vs control: 6 h; for paw swelling effects: SR144528 experiment, 24 h after induction
Protocol: To induce inflammation, 40 μL of 1.5% (w/v) zymosan A (Sigma) suspended in 0.9% saline was injected into the sub-planter surface of the right hind paw of the mice. Immediately after zymosan injection, antagonists were injected intraperitoneally (IP) and after 30 minutes, the fenchone derivatives dissolved in 0.1 mL vehicle containing ethanol:Cremophore:saline at a ratio of 1:1:18 were injected. Control mice were injected with the vehicle only. After 2, 6, and 24 hrs, paw swelling, and pain perception were measured.
Specifically, measurement of Oedema Formation was assessed by monitoring paw swelling via calibrated calipers (0.01 mm), 6 and 24 hrs following injections of zymosan alone and/or the test compounds. Pain hyperalgesia was evaluated by the paw withdrawal von Frey test at 6, and 24 h following injections of zymosan and/or the test compounds. […] In this study, only 1.4-60 g corresponding to 4.17 to 5.88 log of force was used, to test the mouse sensitivity to a mechanical stimulus on the swollen paw. The measurements were performed in a quiet room. Before paw pain measurements, the animals were held for 10 sec. The trained investigator applied the filament to the central area of the hind paw with gradual increasing size. The test consisted of poking the middle of the hind paw to provoke a flexion reflex followed by a clear flinch response after paw withdrawal. Each one of the von Frey filaments was applied for approximately 3-4 s to induce the end-point reflex. The first testing was done by using the force filament of 1.4 g. If there was no withdrawal response, the next higher stimulus was tried. The mechanical threshold force (in grams (g)) was defined as the lowest force imposed by two von Frey monofilaments of various sizes, required to produce a paw retraction. The untreated left hind paw served as a control.

[2] = target: CNR2 (Homo sapiens (Human), UniProt P34972); assay: cAMP Hunter antagonist assay, CB2; format: cell-based; settings: cAMP antagonist mode
Protocol: (§1) Cannabinoid receptors belong to G-protein-coupled receptors which may transduce intracellular agonist-antagonist responses regulating in part levels of cAMP within the cells. Fenchone derivates were assayed using Eurofins proprietary assays (i.e. CB1-Antagonist Catalog #86-0007P-2277AN; CB2-Antagonist Catalog ref. 86-0007P-2818AN; CB1-Agonist; Catalog #86-0007P-2277AG; CB2-Agonist-Catalog #86-0007P-2818AG).
(§2) Briefly, for antagonist activity, cAMP Hunter™ Gi cell lines overexpress naturally Gi coupled, wild type GPCRs and are designed to detect inhibition of intracellular cAMP production in response to agonist stimulation of the receptor. These cell lines are designed to be used in conjunction with the HitHunter® cAMP Assay Detection Kit.
as §2, with “Similarly,” for “Briefly,”, “agonist” for “antagonist”, “Gs” for “Gi”, “increases in” for “inhibition of”, “levels” for “production”, “Kit. […]” for “Kit.”

[3] = target: hCB2R (Homo sapiens (Human), UniProt P34972); assay: [3H]CP-55,940 competition displacement binding, membranes of CHO-K1 cells expressing human CB2R; settings: for Ki: displacement of [3H]CP-55,940; for mCB1R/hCB2R: selectivity index from Ki values
Protocol: Affinity for Cannabinoid Receptors. The compounds were further characterized using a radioligand binding assay to determine their affinities for CB1R and CB2R based on each test compound's ability to displace the radiolabeled CB1R/CB2R agonist CP-55,940 from membranes prepared from a mouse brain (a source of CB1R) and membranes of cells expressing the human CB2R. […] Therefore, the compounds were assayed using membranes from CHO-K1 cells expressing the human CB2R (hCB2R).
Membranes from cells expressing human CB2R were purchased from Charles River, (Cat #A308; Ohio, US). Solutions of test compounds ranging from 0.1 nM to 10 mM were prepared in DMSO. The desired amount of membrane preparation was diluted with ice-cold assay buffer (50 mM Tris-HCl, 2.5 mM EDTA, 5 mM MgCl2, 0.1% BSA, pH 7.4) and was vortexed. […] The assays were incubated for 90 minutes at 30° C. and then immediately filtered on WHATMAN GF/B FilterPaper (Fired) using a Brandel M-24R Harvester followed by six washes with ice cold wash buffer (50 mM Tris-HCl, 2.5 mM EDTA, 5 mM MgCl2, 0.1% BSA, pH 7.4). Radioactivity was detected by adding the FilterPaper directly to the ULTIMA GOLD scintillation cocktail (PerkinElmer), incubation at 20° C. for 60 min and then counted using a Tri-Carb 4910TR liquid scintillation counter.

[4] = tested on: Human OA derived articular chondrocytes; assay: cAMP-Glo EC50 in chondrocyte cell cultures; format: cell-based; settings: 45 min treatment
Source text: All human cell cultures were obtained from total knee replacement surgery (TKA) in accordance with Hadassah Medical Center Institutional Review Board approval and in accordance with the Helsinki Declaration ethical principles for medical research involving human subjects (Study #0488-09). Following written informed consent, articular cartilage was obtained from the knee joints of OA patients undergoing total knee arthroplasty (n=51, mean age 71 years, mean body mass index 31 kg/m2, Kellgren and Lawrence score ranging 3-4). Articular cartilage tissue was dissected, chondrocytes isolated and plated as described by Bar Oz et al., (10). Isolated chondrocytes were passaged to passage 3, and plated in 96 well plates with DMEM media containing 10% FCS, 1% Penicillin-streptomycin, 1% Amphotericin B. Cultures were maintained in standard incubation conditions (37° C., 5% CO2) until confluence. All reagents for cell culture were purchased for Biological Industries (Israel, Beit-Haemek Kibutz), unless otherwise indicated. […] Luminescence was measured and a standard curve was simultaneously run per plate. […] Using this ΔRLU value and the linear equation generated from the standard curve, the cAMP concentration was calculated. […]

[5] = target: CNR1 (Homo sapiens (Human), UniProt P21554); assay: cAMP Hunter antagonist assay, CB1; format: cell-based; settings: cAMP antagonist mode
Protocol: as §1, §2
as §2, with “Similarly,” for “Briefly,”, “agonist” for “antagonist”, “Gs” for “Gi”, “increases in” for “inhibition of”, “levels” for “production”, “Kit. […]” for “Kit.”

[6] = 25 mg/kg IP together with CB2 antagonist SR144528 1 mg/kg

hCB2R, sequence (P34972 whole entry): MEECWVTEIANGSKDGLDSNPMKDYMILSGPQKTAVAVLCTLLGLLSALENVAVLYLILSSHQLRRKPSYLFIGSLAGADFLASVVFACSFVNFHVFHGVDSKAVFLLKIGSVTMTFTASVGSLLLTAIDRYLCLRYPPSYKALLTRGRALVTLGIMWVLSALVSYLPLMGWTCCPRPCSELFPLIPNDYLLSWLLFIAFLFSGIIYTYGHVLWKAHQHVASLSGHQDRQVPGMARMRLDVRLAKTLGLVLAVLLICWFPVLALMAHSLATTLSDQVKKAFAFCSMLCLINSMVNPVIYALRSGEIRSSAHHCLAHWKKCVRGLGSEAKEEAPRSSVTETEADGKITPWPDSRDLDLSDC

| Structure (SMILES) | paw swelling vs control [1, 6] | paw swelling vs control ([1]; 25 mg/kg IP, alone) | paw swelling effects [1] | antagonistic effect CNR2 [2] | Ki [3] | mCB1R/hCB2R [3] | EC50 in chondrocytes compared with HU308 [4] | antagonistic effect CNR1 [5] | paw swelling ([1]; 25 mg/kg IP 1D and 10 mg/kg AM630, 6 h) | paw swelling ([1]; 25 mg/kg IP alone, 24 h, AM630 experiment) | selectivity for the hCB2R over the mCB1R ([3]; from Ki values) |
| --- | --- | --- | --- | --- | --- | --- | --- | --- | --- | --- | --- |
| CCCCCc1cc(OC)c(C2(O)C3(C)CCC(C3)C2(C)C)c(OC)c1 (single isomer, unassigned) [Compound 1b, 2-(2,6′-dimethoxy-4′-pentylphenyl)-1,3,3-trimethylbicyclo[2.2.1]heptan-2-ol] | paw swelling was unaffected | reduced swelling response | not observed | no detectable antagonistic effect | 14.4 nM | 158.3 | low EC50; also recorded: superior EC50 over HU308 | no detectable antagonistic effect | – | – | – |
| CCCCCCC(C)(C)c1cc(OC)c([C@]2(O)C3(C)CCC(C3)C2(C)C)c(OC)c1 (stereo partly shown) [Compound 1d, 2-(2,6′-dimethoxy-4′-(2″-methyloctan-2″-yl)phenyl)-1,3,3-trimethyl-bicyclo[2.2.1]heptan-2-ol] | swelling was reduced compared to the control | reduced swelling response | not observed | no detectable antagonistic effect | 3.51 nM | 121.8 | low EC50; also recorded: superior EC50 over HU308 | no detectable antagonistic effect | reduced swelling | reduced swelling with 1D alone was sustained | 121 fold |
